Reference: patent publication US20100184708A1, “USE OF GLY-PRO-GLU-OH (GPE) AS A THERAPEUTIC AGENT” (priority 2007, published 2010)

Legend:
[1] = test system: HIV-1IIIB; test: HIV-1 antiviral assay (CPE reduction); format: cell-based; details: peptide 10 micrograms per ml; 6 days post-infection; MTS
[2] = test system: CEM-SS cells; test: Cytotoxicity in the HIV-1 assay (MTS cell viability); details: peptide 10 micrograms per ml, MTS
[3] = test system: MRC-5 cells; test: Cytotoxicity testing in MRC-5 cells; format: cell-based, human; details: 6 days incubation, CellTiter 96
[4] = Cytotoxicity testing in MRC-5 cells; format: cell-based, human; details: human, 6 days incubation, CellTiter 96, read-out: % Cell viability
[5] = test system: Pseudomonas aeruginosa; format: cell-based; details: 5 micrograms per ml
[6] = Cytotoxicity in the HIV-1 assay (MTS cell viability); details: human, CEM-SS cells
[7] = Cytotoxicity in the HBV assay (dye uptake cell viability); format: cell-based; details: human, HepG2-2.2.15 cells, peptide 10 micrograms per ml, % cell control
Method: HepG2-2.2.15 cells were plated in 96-well microtiter plates. After 16-24 hours the confluent monolayer of HepG2-2.2.15 cells was washed and the medium was replaced with complete medium containing test peptide—10 micrograms per ml—in duplicate. Lamivudine (3TC) was used as the positive control, while media alone was added to the cells as a negative control (virus control). Three days later the culture medium was replaced with fresh medium containing the peptide. Six days following the initial administration of the peptide, the cell culture supernatants was collected, treated with pronase and DNAse and then used in a real-time quantitative TaqMan PCR assay. The PCR-amplified HBV DNA was detected in real-time by monitoring increases in fluorescence signals that result from the exonucleolytic degradation of a quenched fluorescence probe molecule that hybridizes to the mplified HBV DNA. For each PCR amplification, a standard curve was simultaneously generated using dilutions of purified HBV DNA. Antiviral activity was calculated from the reduction in HBV DNA levels (% virus control). A novel dye uptake assay was then employed to measure cell viability, which is used to calculate toxicity (% cell control).

[8] = test system: MRSA; details: 5 micrograms per ml
[9] = test system: Streptococcus pneumoniae; format: cell-based; details: 5 micrograms per ml

## Cc1cn([C@H]2C[C@H](N=[N+]=[N-])[C@@H](CO)O2)c(=O)[nH]c1=O [AZT, reference compound]
[1]
  % CPE reduction in HIV-1 infected CEM-SS cells: 99%
[2]
  % Cell viability: 97%

## Nc1nc(O)c2ncn(COC(CO)CO)c2n1 [Ganciclovir, reference compound]
[3]
  % Cell viability: 100%

## NCC(=O)N1CCC[C@H]1C(=O)N[C@@H](CCC(=O)O)C(=O)O [IGF-I (1-3), Gly-Pro-Glu-OH]
[4]
  viability at 144 h: 100%
[5]
  % inhibition: 0.0%
[6]
  viability at 10 micrograms per ml: 100%
[7]
  viability at 144 h, 10 micrograms per ml: 98.2%
[8]
  % inhibition: 0.0%
[9]
  % inhibition: 0.0%
